Measurements from patent EP4692094A1 (Beijing Konruns Pharmaceutical Co., Ltd., priority 2023, dated 2024).

Legend:
[1] = biological target: T1, KAT6B (Homo sapiens, UniProt Q8WYB5); assay: Enzymatic activity assay for KAT6B acetyltransferase (TR-FRET, histone substrate H3); type: biochemical; settings: KAT6B 3 nM, Bio-H3 400 nM, AcCOA 2 µM
T1 construct: purchased active motife (Active Motif) 81224
Experimental: The acetylation effects of KAT6B on histone substrate H3, as well as KAT5, KAT7, and KAT8 on histone substrate H4, were determined using the TR-FRET (time-resolved fluorescence resonance energy transfer) method. The determination was performed according to experimental procedures similar to those in "Pharmacological Experiment I": 1.2 Preparation of compounds: The compounds prepared in the examples were each dissolved in dimethylsulfoxide to give solutions at a concentration of 10 mmol/L. • 1) The compounds in the examples were each diluted from 10 mmol/L stock solution to 0.2 mmol/L, i.e., 1 µL of the compound was added to 49 µL of DMSO, and 3-fold dilution was performed to give 10 concentrations. • 2) 50 nL of the test compounds were transferred to 384 reaction plates using Echo, two replicates for each compound, and the plates were centrifuged at a rotation speed of 1000 rpm for 1 min, the final concentration of dimethylsulfoxide (DMSO) being 0.5%. […]
For KAT8: • 3) 2.5 µL of the KAT8 enzyme solution at a final concentration of 10 nM was added to the 384 reaction plates in step 2), and the plates were centrifuged at 1000 rpm for 1 min and incubated at 25 °C for 10 min. • 4) 2.5 µL of […] at a final concentration of 300 nM and an AcCOA (acetyl-CoA) reaction solution at a final concentration of 2 µM were added to the 384 reaction plates in step 3), and the plates were centrifuged at a rotation speed of 1000 rpm for 1 min and incubated at 25 °C for 90 min. • 5) 5 µL of Eu-Ab& Ulight-SA detection solution was separately added to the 384 reaction plates in step 4) of the 4 groups described above, and the plates were centrifuged at 1000 rpm for 1 min and incubated at 25 °C for 60 min. • 6) The HTRF […] signals were read using a BMG high-throughput drug-screening multi-mode microplate reader.
The acetylation levels of the histones in the groups were analyzed by the GraphPad Prism 8 software. […]

[2] = biological target: T2, CYP2C8 (Homo sapiens, UniProt P10632); assay: Inhibitory effect on P450 enzymes in vitro (human liver microsomes), CYP2C8; type: in vitro ADME; settings: probe paclitaxel, final concentration 10 µM, substrate paclitaxel, read-out: % inhibition rate CYP2C8 (paclitaxel)
T2 construct: from tissue; host or cells: human liver microsomes
T2 sequence (P10632 1-490): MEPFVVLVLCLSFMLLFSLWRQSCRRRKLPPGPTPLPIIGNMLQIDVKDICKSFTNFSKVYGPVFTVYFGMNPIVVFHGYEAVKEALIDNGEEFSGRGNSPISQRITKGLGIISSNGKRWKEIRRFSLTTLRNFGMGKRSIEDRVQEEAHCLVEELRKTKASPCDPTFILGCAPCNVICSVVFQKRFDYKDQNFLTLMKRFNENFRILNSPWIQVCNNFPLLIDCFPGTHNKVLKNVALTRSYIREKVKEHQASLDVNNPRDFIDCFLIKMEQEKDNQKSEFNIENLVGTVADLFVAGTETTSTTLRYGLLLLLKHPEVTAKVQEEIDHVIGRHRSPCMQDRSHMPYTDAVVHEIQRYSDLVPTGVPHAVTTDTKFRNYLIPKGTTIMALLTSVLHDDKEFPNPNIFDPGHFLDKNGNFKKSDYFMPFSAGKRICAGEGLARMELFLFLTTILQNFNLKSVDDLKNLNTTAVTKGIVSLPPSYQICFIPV
Experimental: 1.1 Preparation of compounds: The compounds prepared in the examples were each dissolved in dimethylsulfoxide to give solutions at a concentration of 2 mmol/L.
1.2 Test methods: • 1) Incubation system: human liver microsomes, a MgCl2 solution, a phosphate buffer solution, and a substrate solution were each added a 96-well deep-well plate and mixed homogenously. In the final incubation system, the concentration of the human liver microsomes was 0.2 mg/mL, and the final concentrations of the MgCl2 solution and the phosphate buffer solution were 5 mM and 100 mM, respectively. • 2) 1 µL of the substrate solution was added to the incubation system, and the final concentrations of CYP1A2 phenacetin, 2C8 paclitaxel […], 2C19 mephenytoin, 2D6 midazolam, and 3A midazolam substrates were 40 µM (phenacetin), 5 µM (paclitaxel), 50 µM (mephenytoin), 10 µM (mephenytoin), 5 µM (midazolam), and 50 µM […], respectively. • 3) 1 µL of the example compound or vehicle (DMSO) was added to the incubation system, and the incubation system was pre-warmed for 5 min in a 37 °C water bath before starting the reaction with 20 µL of 10 mM NADPH solution.
1.3 Sample treatment: Within the designated time (20 min for phenacetin, 10 min for paclitaxel, 20 min for mephenytoin, 20 min for dextromethorphan, 5 min for midazolam, and 10 min for testosterone), 400 µL of methanol containing the internal standard was added to terminate the reaction, and the mixture was vortexed and mixed homogeneously. Then, the deep-well plate was centrifuged at 3220 g and 4 °C for 40 min. 100 µL of the supernatant was transferred into a new plate, and 150 µL of purified water was added. The mixture was mixed homogenously for LC-MS/MS analysis. Table 11. Inhibitory effects of some compounds in the examples on CYP enzymes

T1 sequence (Q8WYB5 whole entry): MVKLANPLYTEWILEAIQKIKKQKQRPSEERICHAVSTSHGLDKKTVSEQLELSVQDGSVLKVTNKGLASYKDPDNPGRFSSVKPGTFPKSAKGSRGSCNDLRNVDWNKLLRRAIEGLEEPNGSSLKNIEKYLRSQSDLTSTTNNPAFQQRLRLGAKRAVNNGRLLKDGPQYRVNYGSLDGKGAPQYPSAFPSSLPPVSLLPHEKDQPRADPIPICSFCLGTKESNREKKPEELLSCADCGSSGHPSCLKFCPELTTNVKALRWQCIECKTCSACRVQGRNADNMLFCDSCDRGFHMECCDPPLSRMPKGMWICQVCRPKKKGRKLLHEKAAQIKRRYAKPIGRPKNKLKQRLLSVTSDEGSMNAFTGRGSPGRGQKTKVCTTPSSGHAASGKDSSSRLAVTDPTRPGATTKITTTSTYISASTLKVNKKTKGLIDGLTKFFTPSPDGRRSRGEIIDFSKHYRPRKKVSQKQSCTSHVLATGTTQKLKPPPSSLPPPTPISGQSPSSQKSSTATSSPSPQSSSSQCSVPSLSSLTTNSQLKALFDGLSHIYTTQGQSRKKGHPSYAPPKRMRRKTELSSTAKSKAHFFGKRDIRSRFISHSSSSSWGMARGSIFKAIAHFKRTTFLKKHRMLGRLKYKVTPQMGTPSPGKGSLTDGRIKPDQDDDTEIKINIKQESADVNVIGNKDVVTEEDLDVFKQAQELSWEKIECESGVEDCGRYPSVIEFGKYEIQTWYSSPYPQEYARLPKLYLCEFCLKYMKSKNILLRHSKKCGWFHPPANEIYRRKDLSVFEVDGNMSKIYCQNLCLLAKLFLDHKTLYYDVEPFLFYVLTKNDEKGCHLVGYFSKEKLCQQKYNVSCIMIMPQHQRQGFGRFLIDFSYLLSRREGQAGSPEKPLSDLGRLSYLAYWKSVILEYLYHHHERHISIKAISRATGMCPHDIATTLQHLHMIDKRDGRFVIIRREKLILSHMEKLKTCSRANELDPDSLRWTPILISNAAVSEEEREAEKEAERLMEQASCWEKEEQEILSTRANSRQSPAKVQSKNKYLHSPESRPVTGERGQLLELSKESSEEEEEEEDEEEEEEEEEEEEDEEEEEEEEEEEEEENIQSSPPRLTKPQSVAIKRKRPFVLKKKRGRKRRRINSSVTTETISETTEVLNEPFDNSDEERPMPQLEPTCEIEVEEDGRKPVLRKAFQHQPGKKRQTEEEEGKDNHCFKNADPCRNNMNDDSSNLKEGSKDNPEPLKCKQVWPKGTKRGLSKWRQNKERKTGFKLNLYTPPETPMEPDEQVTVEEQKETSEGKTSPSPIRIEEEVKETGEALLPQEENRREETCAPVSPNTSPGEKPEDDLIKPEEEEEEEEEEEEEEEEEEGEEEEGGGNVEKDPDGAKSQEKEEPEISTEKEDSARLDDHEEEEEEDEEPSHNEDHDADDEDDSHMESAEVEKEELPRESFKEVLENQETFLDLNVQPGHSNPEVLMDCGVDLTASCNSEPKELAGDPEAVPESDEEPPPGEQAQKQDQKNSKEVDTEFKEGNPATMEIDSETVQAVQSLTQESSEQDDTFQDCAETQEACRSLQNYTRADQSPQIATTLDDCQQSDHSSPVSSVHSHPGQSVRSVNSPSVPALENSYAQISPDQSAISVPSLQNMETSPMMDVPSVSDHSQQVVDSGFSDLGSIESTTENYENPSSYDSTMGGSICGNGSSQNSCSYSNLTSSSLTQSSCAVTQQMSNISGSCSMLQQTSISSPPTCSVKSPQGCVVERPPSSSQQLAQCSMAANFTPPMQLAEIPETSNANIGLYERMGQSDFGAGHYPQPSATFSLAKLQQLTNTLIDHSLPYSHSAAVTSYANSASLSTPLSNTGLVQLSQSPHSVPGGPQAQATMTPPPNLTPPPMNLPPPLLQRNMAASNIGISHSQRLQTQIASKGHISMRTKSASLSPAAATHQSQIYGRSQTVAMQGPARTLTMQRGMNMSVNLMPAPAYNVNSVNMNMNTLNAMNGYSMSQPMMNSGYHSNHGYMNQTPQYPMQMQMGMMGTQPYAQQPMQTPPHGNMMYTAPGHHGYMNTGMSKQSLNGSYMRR

`COc1ccc2ccoc2c1S(=O)(=O)Nc1noc2cc(Cn3cccn3)nc(OC)c12` [Example 10, N-(6-((1H-Pyrazol-1-yl)methyl)-4-methoxyisoxazolo[4,5-c]pyridin-3-yl)-6-methoxybenzofuran-7-sulfonamide] was tested. Which IC50 [1] did it give?
The IC50 was 1.78 nM.

What about the inhibition at 10 min, 10 µM [2] of the same compound?
Its inhibition at 10 min, 10 µM is 3.71%.

With `COc1cc2c(cc1S(=O)(=O)Nc1noc3cc(Cn4cccn4)nc(OC)c13)CCCC2` [Example 2, N-(6-((1H-Pyrazol-1-yl)methyl)-4-methoxyisoxazolo[4,5-c]pyridin-3-yl)-3-methoxy-5,6,7,8-tetrahydronaphthalene-2-sulfonamide] as the compound, how does the IC50 [1] read?
The IC50 was 2.34 nM.

What about the inhibition at 10 min, 10 µM [2] of the same compound?
The inhibition at 10 min, 10 µM was 16.4%.

Which IC50 [1] does the source give for `COc1cc2c(cc1S(=O)(=O)Nc1noc3cc(Cn4cccn4)nc(OC)c13)OCC2` [Example 59, N-(6-((1H-Pyrazol-1-yl)methyl)-4-methoxyisoxazolo[4,5-c]pyridin-3-yl)-5-methoxy-2,3-dihydrobenzofuran-6-sulfonamide] here?
Its IC50 is 9.5 nM.

What about the inhibition at 10 min, 10 µM [2] of the same compound?
The inhibition at 10 min, 10 µM was 2.08%.
